From patent US20240400572A1, “COMPOUNDS AND METHODS FOR TREATING CANCERS THAT ARE MGMT DEFICIENT REGARDLESS OF MMR STATUS” (Yale University, priority 2021, published 2024)
Values joined by “and” are separate entries in the source; they are usually repeats but may differ in a detail not shown here. Equal entries are not always repeated. “Also recorded” adds a separate entry of the source. Where two headings read alike, the source gives them in different places.

Assays:
Brain distribution study = assay type: in vivo, male C57BL/6 mice; details: PO 20 mg/kg, male C57BL/6 mice
Description: (§1) Compound KL50 dosing solution: 3.39% DMSO+96.61% (10% HP-β-CD in saline) at 2 mg/mL; • 1) Weigh 17.39 mg of compound KL50 into a clean tube. • 2) Add 0.295 mL DMSO into the tube containing the compound. • 3) Vortex the tube for 3 min and sonicate it for 4 min. • 4) Add 8.400 mL 10% HP-β-CD in saline into the tube and vortex the tube for 3 min. Compound I-1 dosing solution: 3.39% DMSO+96.61% (10% HP-β-CD in saline) at 2 mg/mL; • 1) Weigh 16.86 mg Compound I-1 into a clean tube. • 2) Add 0.286 mL DMSO into the tube containing the compound. • 3) Vortex the tube for 3 min and sonicate it for 4 min. • 4) Add 8.144 mL 10% HP-β-CD in saline into the tube and vortex the tube for 3 min.
(§2) The in-vivo pharmacokinetic and brain distribution study was conducted under the following parameters. Twenty seven C57BL/6 male mice were purchased from Shanghai JiHui Laboratory Animal Co. LTD. Each mouse weighted from 16 g to 17 g. The mice were fasted overnight and fed post 4 hr sampling. Compound KL50 and Compound I-I were administered via oral gavage (PO) at a dose of 20 mg/kg (10 mL/kg). After dosing, sampling was completed at 0.083, 0.167, 0.333, 0.5, 0.75, 1, 2, 4 and 8 hr post dose, with three mice sacrificed at each time point.
(§3) Terminal bleeding for plasma and brain was completed at each time point. Approximately 110 μL blood per time point was collected into a K2EDTA tube via the facial vein. The blood sample was put on wet ice and centrifuged to obtain plasma sample (2000 g, 5 min under 4° C.) within 15 minutes. Plasma samples were acidified with 6 μL of formic acid for every 54 μL of plasma. After blood collection, a mid-line incision was made in the animal's scalp and the skin was retracted. The skull overlying the brain was removed. Then, the whole brain was collected, rinsed with cold saline, dried on filtrate paper, and weighed; and then snap frozen by placing the brain into dry-ice. Plasma samples were stored at approximately −70° C. until analysis. Brain tissue was homogenized with 3 volumes (v/w) of PBS (1% FA) and then analyzed with LC-MS/MS. The concentration of study drug was corrected with a dilution factor of four as following: Brain concentration=brain homogenate conc.×4, assuming 1 g wet brain tissue equals to 1 mL

[1] = Pharmacokinetic study, plasma; assay type: in vivo; details: male C57BL/6 mice
Description: as §1, §2, §3

[2] = test system: LN229 MGMT+/−, MMR+/− cells; experiment: Clonogenic cell survival assay; details: cell status given in the value
Description: Cells were trypsinized, washed, counted, and diluted in a medium containing various concentrations of drug. They were then immediately seeded in six-well plates in triplicate at three-fold dilutions, ranging from 9000 to 37 cells per well. Depending on colony size, these plates were kept in the incubator for 10 to 14 days. After incubation, colonies were washed in phosphate-buffered saline (PBS), stained with crystal violet, counted, and quantified.

[3] = male, C57BL/6, mouse, brain/plasma, po, 20 mg/kg, N=3, read-out: Brain Concentration/Plasma Concentration, Mean
[4] = male, C57BL/6, mouse, brain/plasma, po, 20 mg/kg, read-out: Brain Concentration/Plasma Concentration, Individuals

Compound: NC(=O)c1ncn2c(=O)n(CCF)nnc12 [KL-50, 3-(2-fluoroethyl)-4-oxo-3H,4H-imidazo[4,3-d][1,2,3,5]tetrazine-8-carboxamide]
- Kp at 0.75 hr (Brain distribution study; male, C57BL/6, mouse, brain/plasma, po, 20 mg/kg, 0.75 hr, read-out: Brain Concentration/Plasma Concentration, Individuals): 0.344
- Kp at 1 hr (Brain distribution study; [3]): 0.296
- Kp at 1 hr (Brain distribution study; [4]): 0.278
- Kp at 2 hr (Brain distribution study; [3]): 0.348
- Kp at 2 hr (Brain distribution study; [4]): 0.362
- Kp at 4 hr (Brain distribution study; [3]): 0.231
- Kp at 4 hr (Brain distribution study; [4]): 0.174
- Kp at 8 hr (Brain distribution study; [3]): 0.233
- Kp at 8 hr (Brain distribution study; [4]): 0.28
- Cmax (Brain distribution study; mouse, brain): 3690 ng/g
- MRT inf (Brain distribution study; mouse, brain): 1.57 h
- Tmax (Brain distribution study; mouse, brain): 0.333 h
- half-life (Brain distribution study; mouse, brain): 1.18 h
- plasma Concentration, Individuals ([1]; PO 20 mg/kg, 0.083 hr, 20 mg/kg): 25600 ng/mL and 28000 ng/mL
- plasma Concentration, Individuals ([1]; PO 20 mg/kg, 0.167 hr, 20 mg/kg): 22900 ng/mL and 18100 ng/mL
- plasma Concentration, Individuals ([1]; PO 20 mg/kg, 0.333 hr, 20 mg/kg): 14500 ng/mL and 20900 ng/mL
- plasma Concentration, Individuals ([1]; PO 20 mg/kg, 0.5 hr, 20 mg/kg): 12400 ng/mL and 15300 ng/mL
- plasma Concentration, Individuals ([1]; PO 20 mg/kg, 0.75 hr, 20 mg/kg): 11000 ng/mL and 10200 ng/mL
- plasma Concentration, Individuals ([1]; PO 20 mg/kg, 1 hr, 20 mg/kg): 7340 ng/mL and 12300 ng/mL
- plasma Concentration, Individuals ([1]; PO 20 mg/kg, 2 hr, 20 mg/kg): 2750 ng/mL and 4570 ng/mL
- plasma Concentration, Individuals ([1]; PO 20 mg/kg, 4 hr, 20 mg/kg): 1590 ng/mL and 796 ng/mL
- plasma Concentration, Individuals ([1]; PO 20 mg/kg, 8 hr, 20 mg/kg): 305 ng/mL and 104 ng/mL and 185 ng/mL
- concentration at 0.083 hr ([1]; male, C57BL/6, mouse, plasma, po, 20 mg/kg, 0.083 hr, N=3, read-out: plasma Concentration, Mean): 25300 ng/mL
- concentration at 0.083 hr ([1]; male, C57BL/6, mouse, plasma, po, 20 mg/kg, 0.083 hr, read-out: plasma Concentration, Individuals): 22300 ng/mL
- concentration at 0.167 hr ([1]; male, C57BL/6, mouse, plasma, po, 20 mg/kg, 0.167 hr, N=3, read-out: plasma Concentration, Mean): 21800 ng/mL
- concentration at 0.167 hr ([1]; male, C57BL/6, mouse, plasma, po, 20 mg/kg, 0.167 hr, read-out: plasma Concentration, Individuals): 24500 ng/mL
- concentration at 0.333 hr ([1]; male, C57BL/6, mouse, plasma, po, 20 mg/kg, 0.333 hr, N=3, read-out: plasma Concentration, Mean): 18100 ng/mL
- concentration at 0.333 hr ([1]; male, C57BL/6, mouse, plasma, po, 20 mg/kg, 0.333 hr, read-out: plasma Concentration, Individuals): 19000 ng/mL
- concentration at 0.5 hr ([1]; male, C57BL/6, mouse, plasma, po, 20 mg/kg, 0.5 hr, N=3, read-out: plasma Concentration, Mean): 14000 ng/mL
- concentration at 0.5 hr ([1]; male, C57BL/6, mouse, plasma, po, 20 mg/kg, 0.5 hr, read-out: plasma Concentration, Individuals): 14400 ng/mL
- concentration at 0.75 hr ([1]; male, C57BL/6, mouse, plasma, po, 20 mg/kg, 0.75 hr, N=3, read-out: plasma Concentration, Mean): 10300 ng/mL
- concentration at 0.75 hr ([1]; male, C57BL/6, mouse, plasma, po, 20 mg/kg, 0.75 hr, read-out: plasma Concentration, Individuals): 9590 ng/mL
- concentration at 1 hr ([1]; male, C57BL/6, mouse, plasma, po, 20 mg/kg, 1 hr, N=3, read-out: plasma Concentration, Mean): 10000 ng/mL
- concentration at 1 hr ([1]; male, C57BL/6, mouse, plasma, po, 20 mg/kg, 1 hr, read-out: plasma Concentration, Individuals): 10500 ng/mL
- concentration at 2 hr ([1]; male, C57BL/6, mouse, plasma, po, 20 mg/kg, 2 hr, N=3, read-out: plasma Concentration, Mean): 3300 ng/mL
- concentration at 2 hr ([1]; male, C57BL/6, mouse, plasma, po, 20 mg/kg, 2 hr, read-out: plasma Concentration, Individuals): 2580 ng/mL
- concentration at 4 hr ([1]; male, C57BL/6, mouse, plasma, po, 20 mg/kg, 4 hr, N=3, read-out: plasma Concentration, Mean): 1150 ng/mL
- concentration at 4 hr ([1]; male, C57BL/6, mouse, plasma, po, 20 mg/kg, 4 hr, read-out: plasma Concentration, Individuals): 1060 ng/mL
- concentration at 8 hr ([1]; male, C57BL/6, mouse, plasma, po, 20 mg/kg, 8 hr, N=3): 198 ng/mL
- AUC(0-inf) ([1]; mouse, plasma, PO 20 mg/kg): 28800 ng·h/mL
- AUC(0-t) ([1]; mouse, plasma, PO 20 mg/kg): 28400 ng·h/mL
- Cmax ([1]; mouse, plasma, PO 20 mg/kg): 25300 ng/mL
- MRT inf ([1]; mouse, plasma, PO 20 mg/kg): 1.47 h
- Tmax ([1]; mouse, plasma, PO 20 mg/kg): 4.98 min
- half-life ([1]; mouse, plasma, PO 20 mg/kg): 1.49 h
- clonogenic survival (in words) [2]: robust antitumor activity in MGMT− cells, independent of MMR status; also recorded: minimal toxicity to MGMT+ cells at doses up to at least 200 μM
